Data taken from patent US20150148311A1, “NON-SYSTEMIC TGR5 AGONISTS” (Ardelyx, Inc., priority 2011, published 2015).
pEC50: −log10 of the molar value.

Experiments:
[1] = Compound plasma concentration, LC-MS/MS, 8 h post dose; assay type: in vivo; conditions: 30 mg/kg; for Number of Mice with Plasma Concentration < LLOQ: mice below LLOQ / mice in group; for concentration at 8 h: male, C57BL/6, mouse, mice, plasma, read-out: Mean Example Plasma Concentration
Experimental: (§1) Eight hours later, each mouse was heavily anesthetized with isoflurane, the peritoneal cavity was opened and the gallbladder, with its entire contents, was carefully excised and weighed. Blood was collected from the left ventricle of the heart and processed to plasma in EDTA-coated tubes containing aprotinin and DPPIV inhibitor for measurement of total GLP-1 (K150FCC; Meso Scales Discovery, Gaithersburg Md.).
Plasma samples were treated with acetonitrile containing an internal standard, precipitated proteins removed by centrifugation. Supernatants were analyzed by LC-MS/MS and compound concentrations were determined by interpolated from a standard curve prepared in plasma.

human TGR5 = molecular target: T1, human TGR5 (Homo sapiens, UniProt Q8TDU6); test: Cell-based TGR5 assay, HEK293 cells stably expressing human TGR5, cAMP by HTRF; conditions: pEC50 Human TGR5, HEK293 cells stably expressing human TGR5, 30 min at 37 C, 0.05 nM to 10 μM
T1 construct: expressed in transfected cells
T1 sequence (Q8TDU6 1-330): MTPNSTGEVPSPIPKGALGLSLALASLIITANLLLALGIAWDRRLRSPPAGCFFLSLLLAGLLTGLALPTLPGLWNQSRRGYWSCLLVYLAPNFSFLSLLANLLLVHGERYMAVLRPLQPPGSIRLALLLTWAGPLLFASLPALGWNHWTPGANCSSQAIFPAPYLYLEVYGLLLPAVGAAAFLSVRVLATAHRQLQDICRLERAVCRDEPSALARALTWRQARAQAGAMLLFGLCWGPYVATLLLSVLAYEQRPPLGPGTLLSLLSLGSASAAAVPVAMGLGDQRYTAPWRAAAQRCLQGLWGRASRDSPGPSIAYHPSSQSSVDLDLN
Summary of the method: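 cAMP HTRF read-out, converted to concentration via standard curve, after a 30 min, 37 °C compound exposure in HBSS with 10 mM HEPES pH 7.4 and 0.5 mM IBMX, compounds serially diluted 3-fold from 10 mM DMSO stock then 100-fold. Cells: stable human TGR5 HEK293, or NCI-H716 expressing TGR5 endogenously.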

[2] = Compound concentration in gall bladder, LC-MS/MS, 8 h post dose; assay type: in vivo; conditions: 30 mg/kg; for Number of Mice with Gallbladder Concentration < LLOQ: mice below LLOQ / mice in group; for concentration at 8 h: male, C57BL/6, mouse, with contents, mice, gallbladder homogenate, read-out: Mean Example Gallbladder Concentration
Experimental: as §1
Compound concentrations in the gall bladder were determined as follows: each mouse was heavily anesthetized with isoflurane, the peritoneal cavity was opened and the gallbladder, with its entire contents, was carefully excised. After harvest, gall bladders were homogenized in 100 μL water using a micro-homogenizer. Samples of homogenate were diluted 1:5 in water and precipitated with three volumes of neat acetonitrile. After centrifugation, supernatants were analyzed by LC-MS/MS. The level of test compound present in gall bladder samples was interpolated from a standard curve for each individual compound prepared in a matrix of gallbladder homogenate from vehicle treated animals.

human IBAT = molecular target: T2, human IBAT (Homo sapiens, UniProt Q12908); test: IBAT counter screen, [3H]taurocholic acid uptake in IBAT-transfected HEK293 cells; assay type: cell-based; conditions: for EC50: read-out: pEC50 human IBAT (converted)
T2 construct: expressed in transfected cells; host or cells: HEK293
T2 sequence (Q12908 1-348): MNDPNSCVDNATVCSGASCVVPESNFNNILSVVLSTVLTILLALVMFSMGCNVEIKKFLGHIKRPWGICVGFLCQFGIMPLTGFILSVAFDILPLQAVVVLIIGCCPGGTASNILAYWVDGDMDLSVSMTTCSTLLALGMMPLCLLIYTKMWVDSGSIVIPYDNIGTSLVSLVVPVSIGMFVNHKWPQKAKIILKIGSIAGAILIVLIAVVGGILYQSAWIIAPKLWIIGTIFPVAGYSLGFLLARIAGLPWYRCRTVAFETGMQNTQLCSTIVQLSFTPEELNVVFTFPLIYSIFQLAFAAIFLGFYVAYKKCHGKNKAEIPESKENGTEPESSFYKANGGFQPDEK
Experimental: Following a 40-min incubation, the solution was removed, and the cells were washed twice with uptake buffer. Cells were lysed by addition of 20 μL 0.1% Tween 80 followed by 100 μL scintillation fluid and counted using a TopCount (Perkin Elmer).

Row | Compound | Number of Mice with Plasma Concentration < LLOQ [1] | Number of Mice with Gallbladder Concentration < LLOQ [2] | EC50 (human IBAT) [µM] | further results
1 | C[C@@H](NC(=O)[C@@H](C)NC(=O)[C@@H](C)NC(=O)CCCCc1cc(Cl)c(CN2CSC[C@H]2C(=O)N2CCN(C3CC3)c3ccccc32)cc1Cl)C(=O)O [Example 227] | 7/8 | 0/7 | – | concentration at 8 h [1]: 0.6 ng/mL; pEC50 (human TGR5): > 7.00; concentration at 8 h [2]: 1730 nM
2 | CN(C[C@H](O)[C@@H](O)[C@H](O)[C@H](O)CO)C(=O)CCc1cc(Cl)c(CN2CSC[C@H]2C(=O)N2CCN(C3CC3)c3ccccc32)cc1Cl [Example 237] | 7/8 | 1/8 | – | –
3 | C[C@H](CCC(=O)O)[C@H]1CC[C@H]2[C@@H]3[C@H](O)C[C@@H]4C[C@H](O)CC[C@]4(C)[C@H]3CC[C@]12C [chenodeoxycholic acid, reference compound] | – | – | – | inhibition of uptake of [3H]taurocholic acid (human IBAT; IBAT-transfected HEK293 cells, potency similar to that reported by Craddock): inhibited uptake
4 | CN(C[C@H](O)[C@@H](O)[C@@H](O)[C@H](O)CO)C(=O)CCCCc1cc(Cl)c(CN2CSC[C@H]2C(=O)N2CCN(C3CC3)c3ccccc32)cc1Cl [Example 239] | 6/8 | 8/8 | – | concentration at 8 h [1]: 2 ng/mL; concentration at 8 h [2]: < 3 nM
5 | O=C([C@@H]1C[C@H](O)CN1Cc1cc(Cl)ccc1Cl)N1CCN(C2CC2)c2ccccc21 [Example 6, (4-cyclopropyl-3,4-dihydroquinoxalin-1(2H)-yl)((2S,4S)-1-(2,5-dichlorobenzyl)-4-hydroxypyrrolidin-2-yl)methanone] | – | – | > 25.1 | –
6 | O=C([C@@H]1CCCN1Cc1cc(Cl)ccc1Cl)N1CCCc2ccccc21 [Example 10, (S)-(1-(2,5-dichlorobenzyl)pyrrolidin-2-yl)(3,4-dihydroquinolin-1(2H)-yl)methanone] | – | – | > 25.1 | –
7 | CN(C[C@H](O)[C@@H](O)[C@H](O)[C@H](O)CO)C(=O)CC[C@H](NC(=O)CCCCc1cc(Cl)c(CN2CSC[C@H]2C(=O)N2CCN(C3CC3)c3ccccc32)cc1Cl)C(=O)O [Example 278] | 5/8 | 0/8 | – | concentration at 8 h [1]: 2.3 ng/mL; pEC50 (human TGR5): 6.00 to 6.90; concentration at 8 h [2]: 3100 nM
8 | O=C(NC[C@H](O)[C@@H](O)[C@H](O)[C@H](O)CO)c1ccc(OCc2cc(Cl)c(CN3CSC[C@H]3C(=O)N3CCN(C4CC4)c4ccccc43)cc2Cl)nc1 [Example 285] | 2/8 | 0/8 | – | –
9 | C[C@@]1(C(=O)N2CCN(C3CC3)c3ccccc32)CCCN1Cc1cc(Cl)ccc1Cl [Example 20, (S)-(4-cyclopropyl-3,4-dihydroquinoxaline-1(2H)-yl)(1-(2,5-dichlorobenzyl)-2-methylpyrrolidin-2-yl)methanone] | – | – | > 25.1 | –
10 | CN(C[C@@H](O)[C@H](O)[C@@H](O)[C@@H](O)CO)C(=O)NCCCCc1cc(Cl)c(CN2CSC[C@H]2C(=O)N2CCN(C3CC3)c3ccccc32)cc1Cl [Example 208] | 7/7 | 0/7 | – | concentration at 8 h [1]: < 0.5 ng/mL
11 | O=C(NCCCCCc1cc(Cl)c(CN2CSC[C@H]2C(=O)N2CCN(C3CC3)c3ccccc32)cc1Cl)NCP(=O)(O)O [Example 283] | 7/8 | 0/8 | – | concentration at 8 h [1]: 24.8 ng/mL; pEC50 (human TGR5): 6.00 to 6.90; concentration at 8 h [2]: 3060 nM
12 | O=C(NCCCCCc1cc(Cl)c(CN2CSC[C@H]2C(=O)N2CCN(C3CC3)c3ccccc32)cc1Cl)N1CCN(CP(=O)(O)O)CC1 [Example 282] | 0/8 | 0/7 | – | concentration at 8 h [1]: 2.8 ng/mL; pEC50 (human TGR5): > 7.00; concentration at 8 h [2]: 80 nM
13 | O=C(CCc1cc(Cl)c(CN2CSC[C@H]2C(=O)N2CCN(C3CC3)c3ccccc32)cc1Cl)NC[C@H](O)[C@@H](O)C(O)[C@H](O)CO (stereo in doubt) [Example 97, 3-(2,5-dichloro-4-(((R)-4-(4-cyclopropyl-1,2,3,4-tetrahydroquinoxaline-1-carbonyl)thiazolidin-3-yl)methyl)phenyl)-N-((2S,3R,4R,5R)-2,3,4,5,6-pentahydroxyhexyl)propanamide] | 7/8 | 0/8 | – | concentration at 8 h [2]: 520 nM
14 | CN(C[C@H](O)[C@@H](O)[C@@H](O)[C@H](O)CO)C(=O)CCc1cc(Cl)c(CN2CSC[C@H]2C(=O)N2CCN(C3CC3)c3ccccc32)cc1Cl [Example 98, 3-(2,5-dichloro-4-(((R)-4-(4-cyclopropyl-1,2,3,4-tetrahydroquinoxaline-1-carbonyl)thiazolidin-3-yl)methyl)phenyl)-N-methyl-N-((2S,3R,4S,5R)-2,3,4,5,6-pentahydroxyhexyl)propanamide] | 4/8 | 0/8 | – | –

More lines, main results first:

Row | Number of Mice with Plasma Concentration < LLOQ [1] | Number of Mice with Gallbladder Concentration < LLOQ [2] | EC50 (human IBAT) [µM] | Compound | further results
15 | – | – | > 25.1 | O=C([C@@H]1CSCCN1Cc1cc(Cl)ccc1Cl)N1CCN(C2CC2)c2ccccc21 [Example 22, (R)-(4-cyclopropyl-3,4-dihydroquinoxaline-1(2H)-yl)(4-(2,5-dichlorobenzyl)thiomorpholin-3-yl)methanone] | –
16 | – | – | > 25.1 | O=C([C@@H]1CCCCN1Cc1cc(Cl)ccc1Cl)N1CCN(C2CC2)c2ccccc21 [Example 14, (S)-(4-cyclopropyl-3,4-dihydroquinoxaline-1(2H)-yl)(1-(2,5-dichlorobenzyl)piperidin-2-yl) methanone] | –
17 | – | – | > 25.1 | O=C([C@@H]1COCCN1Cc1cc(Cl)ccc1Cl)N1CCN(C2CC2)c2ccccc21 [Example 23, (S)-(4-cyclopropyl-3,4-dihydroquinoxaline-1(2H)-yl)(4-(2,5-dichlorobenzyl)morpholin-3-yl)methanone] | –
18 | – | – | > 25.1 | O=C([C@H]1CCCN1Cc1cc(Cl)ccc1Cl)N1CCN(C2CC2)c2ccccc21 [Example 15, (R)-(4-cyclopropyl-3,4-dihydroquinoxalin-1(2H)-yl)(1-(2,5-dichlorobenzyl)pyrrolidin-2-yl)methanone] | –
19 | – | – | > 25.1 | O=C([C@@H]1C[C@@H](O)CN1Cc1cc(Cl)ccc1Cl)N1CCN(C2CC2)c2ccccc21 [Example 2, (4-cyclopropyl-3,4-dihydroquinoxalin-1(2H)-yl)((2S,4R)-1-(2,5-dichlorobenzyl)-4-hydroxypyrrolidin-2-yl)methanone] | –
20 | – | – | > 25.1 | O=C([C@H]1CCCCN1Cc1cc(Cl)ccc1Cl)N1CCN(C2CC2)c2ccccc21 [Example 16, (R)-(4-cyclopropyl-3,4-dihydroquinoxaline-1(2H)-yl)(1-(2,5-dichlorobenzyl)piperidin-2-yl) methanone] | –
21 | – | – | > 25.1 | O=C([C@@H]1CCCN1Cc1cc(Cl)ccc1Cl)N1CCN(C2CC2)c2ccccc21 [Example 12, (S)-(4-cyclopropyl-3,4-dihydroquinoxalin-1(2H)-yl)(1-(2,5-dichlorobenzyl)pyrrolidin-2-yl)methanone] | –
22 | – | – | > 25.1 | O=C([C@@H]1C[C@H](F)CN1Cc1cc(Cl)ccc1Cl)N1CCN(C2CC2)c2ccccc21 [Example 3, (4-cyclopropyl-3,4-dihydroquinoxalin-1(2H)-yl)((2S,4S)-1-(2,5-dichlorobenzyl)-4-fluoropyrrolidin-2-yl)methanone] | –
